Laboratory results taken from publication PMC7482398 (Molecular Pharmaceutics, 2020).
Where two headings read alike, the source gives them in different places.

Key:
Sprague Dawley rats = details: male and female Sprague Dawley rats, 2.5 mg/kg body weight, 14 days of observation; cited from earlier work
Salmonella typhimurium = Salmonella typhimurium mutation test; cited from earlier work
Escherichia coli = Escherichia coli mutation test; cited from earlier work
[1] = system: P-gp function at the blood–brain barrier; details: rhesus monkey, in vivo
P-gp = details: cited from earlier work
[2] = rhesus monkey, in vivo
P-gp function at the BBB = details: cited from earlier work
[3] = rats, 30 min after tracer injection; cited from earlier work
[4] = cited from earlier work
[5] = after P-gp inhibition, tariquidar 8 mg/kg i.v. 30 min before PET

Structure (SMILES)	toxicity (Sprague Dawley rats)	mutagenic activity (Salmonella typhimurium)	mutagenic activity (Escherichia coli)	change in K1 between baseline and after-inhibition [1]	increase of whole brain VT from 10 min to 91-min data [1]	VT (brain uptake at the baseline) (P-gp; mice and rats, baseline)	transporter selectivity (P-gp vs BCRP) (P-gp; ref Savolainen et al. (2017), 14)	plasma radioactivity representing the parent tracer [2]	difference in biological T1/2 and Ke between baseline and after-inhibition scans ([2]; 8 mg/kg)	K1 rats (P-gp function at the BBB; [5])	VT rats (P-gp function at the BBB; [5])	K1 rats (P-gp function at the BBB; baseline scans)	VT rats (P-gp function at the BBB; baseline scans)	increase in K1 after tariquidar compared with baseline (P-gp function at the BBB; rats)	increase in VT after tariquidar compared with baseline (P-gp function at the BBB; rats)	whole brain K1 higher in tariquidar-treated rats than in control rats (P-gp function at the BBB; rats)	whole brain VT higher in tariquidar-treated rats than in control rats (P-gp function at the BBB; rats)	parent [18F]MC225 still available in plasma [3]	log D [4]
COc1cc2c(cc1OC)CN(CCCC1CCCc3c(OCCF)cccc31)CC2 (stereo not shown) [MC225, 5-(1-(2-fluoroethoxy))-[3-(6,7-dimethoxy-3,4-dihydro-1H-isoquinolin-2-yl)-propyl]-5,6,7,8-tetrahydronaphthalen]	did not cause toxicity	did not reveal any mutagenic activity	did not reveal any mutagenic activity	–	–	–	–	–	–	–	–	–	–	–	–	–	–	–	–
COc1cc2c(cc1OC)CN(CCCC1CCCc3c(OCC[18F])cccc31)CC2 (stereo not shown) [[^18F]MC225]	–	–	–	42–44%	165%	6.6–11	selectively transported by P-gp and not by BCRP	50%	did not find significant differences	0.81	20	0.12 mL/mL/min	7.7	6–11 fold	2–4 fold	575%	159%	24%	3.0
